Laboratory results published in US20250001009A1, “THERAPY FOR PROGRAMMED CELL DEATH IN A SUBJECT TRANSPLANTED WITH A DONOR LIVER CARRYING THE PNPLA3 RS738409:G VARIANT” (priority 2021, published 2025).
Entries after “also recorded” stand apart in the source; their conditions may differ.

Assays:
[1] = tested on: donor hepatocytes positive for the PNPLA3 rs738409:G variant; assay: Cell viability / survival (Alamar Blue) of primary human hepatocytes; type: cell-based
Protocol: To evaluate the protective effects of deferoxamine, primary human hepatocytes were treated with 100 μM deferoxamine (DFO, Sigma-Aldrich, Saint-Louis, MO) for 24 hours in suspension. To evaluate the protective effects of GSH, primary human hepatocytes on collagen-coated plates were treated with 10 μM reduced L-glutathione (GSH, G4251, Sigma-Aldrich, Saint-Louis, MO) for 48 hours. Cell Viability Measurements: Cell viability was assessed in 96-well format using Alamar Blue (Invitrogen, Carlsbad, CA) absorbance (570 nm/600 nm) measured on a synergy HTX microplate reader (Biotek, Winooski, VT) 24 hours after ferroptosis induction. Post thaw viability of primary human hepatocytes was evaluated by Trypan blue dye exclusion counting using a Countess 3 automated cell counter (Invitrogen, Carlsbad, CA).

[2] = tested on: donor hepatocytes positive for the PNPLA3 rs738409:G variant; assay: Lipid peroxidation (C11-BODIPY / MDA) in primary human hepatocytes; type: cell-based
Protocol: To evaluate the protective effects of deferoxamine, primary human hepatocytes were treated with 100 μM deferoxamine (DFO, Sigma-Aldrich, Saint-Louis, MO) for 24 hours in suspension. To evaluate the protective effects of GSH, primary human hepatocytes on collagen-coated plates were treated with 10 μM reduced L-glutathione (GSH, G4251, Sigma-Aldrich, Saint-Louis, MO) for 48 hours. Analysis of Lipid Peroxidation: A oxidation-sensitive probe C11-BODIPY (581/591) (Invitrogen, Carlsbad, CA) was used to evaluate lipid peroxidation under a fluorescence microscope. Untreated hepatocytes were prepared using a cytocentrifuge, incubated for 30 min with 10 μM C11-BODIPY, and washed with PBS. Cultured cells were incubated with 10 μM C11-BODIPY dissolved in culture media for 30 min at 37° C. and washed with PBS. The fluorescent signal was evaluated 3 hours after induction of ferroptosis. Malondialdehyde (MDA) is a natural biproduct of lipid peroxidation and MDA quantification is used as marker for lipid peroxidation. The MDA content in primary human hepatocytes was quantified using a commercially available kit from Sigma-Aldrich (Sigma-Aldrich, Saint-Louis, MO). Cryopreserved primary human hepatocytes were pelleted and analyzed directly or were cultured for 3 hours in suspension before the analysis. […] The MDA-TBA adduct was quantified using fluorometric detection (ex/em=430 nm/590 nm).

[3] = tested on: donor hepatocytes positive for the PNPLA3 rs738409:G variant; assay: Mitochondrial shape by transmission electron microscopy; type: cell-based, human; conditions: in the presence of FINO2
Protocol: To evaluate the protective effects of deferoxamine, primary human hepatocytes were treated with 100 μM deferoxamine (DFO, Sigma-Aldrich, Saint-Louis, MO) for 24 hours in suspension. To evaluate the protective effects of GSH, primary human hepatocytes on collagen-coated plates were treated with 10 μM reduced L-glutathione (GSH, G4251, Sigma-Aldrich, Saint-Louis, MO) for 48 hours. Transmission electron microscopy: Human hepatocytes in suspension were briefly centrifugated and washed with PBS solution. Samples were then fixed with 2.5% glutaraldehyde over night at 4° C. Fixed samples were processed by the Center for Biologic Imaging at the University of Pittsburgh, and treated with 1% osmium tetroxide and 1% potassium ferricyanide for 1 hour at room temperature. Samples were washed with PBS and dehydrated in a graded series of ethanol solution (30%, 50%, 70%, and 90% ethanol; 10 minutes each) and three 15-minute incubations in fresh 100% ethanol. Infiltration/embedding was done with three 1-hour incubations of epon. The last change of epon was removed and beam capsules filled with resin were inverted over relevant areas of the monolayers. […] Mitochondrial shape was evaluated as published previously using ImageJ (Merrill et al. in Techniques to Investigate Mitochondrial Function in Neurons, 123:31-48. Neuromethods. Springer New York, 2017).

Compound	donor hepatocyte survival ([1]; donor hepatocytes cultured in the presence of FINO2 (50 μM), 24 hours after ferroptosis induction)	lipid peroxidation ([2]; donor hepatocytes cultured in the presence of FINO2 (50 μM))	mitochondrial shape [3]	survival ([1]; 10 μM reduced L-glutathione, 48 hours, collagen-coated plates, p=0.002)	lipid peroxidation ([2]; 10 μM reduced L-glutathione, 48 hours, collagen-coated plates)
CC1(CCO)CC2(CCC(C(C)(C)C)CC2)OO1 (stereo not drawn) [FINO2, (5α,8α)-8-(1,1-dimethylethyl)-3-methyl-1,2-dioxaspiro[4.5]decane-3-ethanol, reference compound]	significant reduction in donor hepatocyte survival	increased lipid peroxidation	changed from a rod shape to a spherical shape		
N[C@@H](CCC(=O)N[C@@H](CS)C(=O)NCC(=O)O)C(=O)O [GSH, reduced L-glutathione]				improves cell survival; also recorded: increased survival	reduces lipid peroxidation; also recorded: decreased lipid peroxidation
